Measured values: patent US4559323A, “A41030 Antibiotics” (Eli Lilly and Company, priority 1984, dated 1985)
Converted amounts (≈) assume the structure as drawn. Read-outs that look alike come from different tables or passages of the source.

Columns and labels:
Fusobacterium symbiosum = test: Agar-dilution MIC (anaerobes); type: cell-based; details: Table 14; Fusobacterium symbiosum 1470
Bacteroides corrodens [1] = test: Agar-dilution MIC (anaerobes); type: cell-based; details: Table 12; 24-hour; B. corrodens 1874
Text: (§1) The A41030 antibiotics, factors A, B, and C, are active against a genus of anaerobic bacteria identified as Bacteroides sp., the 24-hour MIC values being determined by the agar-dilution method, and are set forth in Table 12, which follows.

Bacteroides vulgatis [2] = test: Agar-dilution MIC (anaerobes); type: cell-based; details: Table 12; 24-hour; B. vulgatis 1563
Text: as §1

[3] = tested on: Bacteroides melaninogenicus; test: Agar-dilution MIC (anaerobes); type: cell-based; details: Table 14; Bacteroides melaninogenicus 2736
[4] = tested on: Peptostreptococcus anaerobius; test: Agar-dilution MIC (anaerobes); type: cell-based
Solubility in solvents = type: physicochemical; details: solvents as named
Text: The seven antibiotic factors are recovered from the fermentation and are obtained as a mixture, the A41030 complex. It will be recognized that the ratio of the factors in the A41030 complex will vary, depending upon the fermentation conditions used. The individual factors […], and G are separated and isolated as individual compounds, as hereinafter described.

Bacteroides fragilis = test: Agar-dilution MIC (anaerobes); type: cell-based
Text: (§2) The agar-dilution procedure described by the International Collaborative study (ICS) group was used to determine the minimum inhibitory concentrations (MIC's).

Bacteroides vulgatis [5] = test: Agar-dilution MIC (anaerobes); type: cell-based; details: Table 14; Bacteroides vulgatis 1211
S. pyogenes = test: Experimental bacterial infection in mice, subcutaneous ED50; type: in vivo; details: two doses subcutaneously
Experimental: (§3) All of the A41030 factors tested have shown in vivo antimicrobial activity against experimental bacterial infections. When two doses of test compound were administered subcutaneously to mice in illustrative infections, the activity observed is measured as an ED50 value [effective dose in mg./kg. to protect fifty percent of the test animals: See Warren Wick, et al., J. Bacteriol. 81, 233-235 (1961)].

S. pneumoniae = test: as above; type: in vivo; details: two doses subcutaneously
Experimental: as §3

Staph. aureus = test: as above; type: in vivo; details: two doses subcutaneously
Experimental: as §3

Peptococcus prevoti = test: Agar-dilution MIC (anaerobes); type: cell-based
Clostridium septicum = test: Agar-dilution MIC (anaerobes); type: cell-based; details: Table 14; Clostridium septicum 1128
[6] = tested on: Peptostreptococcus intermedius; test: Agar-dilution MIC (anaerobes); type: cell-based
Streptococcus pyogenes = test: Agar-dilution MIC; type: cell-based; details: 24 hours, Streptococcus pyogenes C203
Text: as §2

Pc. constellatus = test: Agar-dilution MIC (anaerobes); type: cell-based, Peptococcus constellatus; details: Table 15; Pc. constellatus 1468
Experimental: The MIC values were determined by the agar-dilution method, and are recorded in Table 15, which follows.

Bacteroides corrodens [7] = test: Agar-dilution MIC (anaerobes); type: cell-based; details: Table 14; Bacteroides corrodens 1874
Hemophilus influenzae = test: Agar-dilution MIC; type: cell-based; details: 24 hours
Clostridium difficile = type: cell-based; details: Table 16
Text: The A41030 antibiotic factors A, B, C, D, E, F, and G, are also active against a number of strains of Clostridium difficile, as determined by the agar-dilution method.

Salmonella typhi = test: Agar-dilution MIC; type: cell-based; details: Table 17, 24 hours
[8] = Electrometric titration (pKa); type: physicochemical; details: electrometric titration in 66% dimethylformamide in water
[9] = tested on: Fusobacterium necrophorum; test: Agar-dilution MIC (anaerobes); type: cell-based; details: Table 14; Fusobacterium necrophorum 6054A

N[C@H]1C(=O)N[C@@H]2Cc3ccc(c(Cl)c3)Oc3cc4cc(c3O)Oc3ccc(cc3Cl)[C@@H](O)[C@@H]3NC(=O)C(NC(=O)[C@@H]4NC(=O)[C@@H](NC2=O)c2cc(O)cc(c2)Oc2cc1ccc2O)c1ccc(O)c(c1)-c1c(O)cc(O)cc1[C@@H](C(=O)O)NC3=O [A41030 factor B]
MIC (Fusobacterium symbiosum): 1.0 µg/mL (≈ 0.834 µM) | MIC (Bacteroides corrodens [1]): 32 µg/mL (≈ 26.7 µM) | MIC (Bacteroides vulgatis [2]): 32 µg/mL (≈ 26.7 µM) | MIC [3]: 4 µg/mL (≈ 3.34 µM) | MIC ([4]; Table 14, Peptostreptococcus anaerobius 1428): ≤ 0.25 µg/mL | MIC ([4]; Table 15, Ps. anaerobius 8): 0.25 µg/mL (≈ 0.209 µM) | MIC ([4]; Table 15, Ps. anaerobius 52): 0.5 µg/mL (≈ 0.417 µM) | MIC ([4]; Table 15, Ps. anaerobius 59): 0.25 µg/mL (≈ 0.209 µM) | MIC ([4]; Table 15, Ps. anaerobius 1418): 0.06 µg/mL (≈ 0.05 µM) | MIC ([4]; Table 15, Ps. anaerobius 1428): 0.25 µg/mL (≈ 0.209 µM) | MIC ([4]; Table 15, Ps. anaerobius 1451): 0.25 µg/mL (≈ 0.209 µM) | MIC ([4]; Table 15, Ps. anaerobius 1477): 0.125 µg/mL (≈ 0.104 µM) | Solubility (Solubility in solvents): soluble in the same solvents as factor A | MIC (Bacteroides fragilis; Table 12, 24-hour, B. fragilis 2): 32 µg/mL (≈ 26.7 µM) | MIC (Bacteroides fragilis; Table 12, 24-hour, B. fragilis 9): 32 µg/mL (≈ 26.7 µM) | MIC (Bacteroides fragilis; Table 12, 24-hour, B. fragilis 103): 32 µg/mL (≈ 26.7 µM) | MIC (Bacteroides fragilis; Table 12, 24-hour, B. fragilis 104): 32 µg/mL (≈ 26.7 µM) | MIC (Bacteroides fragilis; Table 12, 24-hour, B. fragilis 106): 32 µg/mL (≈ 26.7 µM) | MIC (Bacteroides fragilis; Table 12, 24-hour, B. fragilis 107): 32 µg/mL (≈ 26.7 µM) | MIC (Bacteroides fragilis; Table 12, 24-hour, B. fragilis 108): 32 µg/mL (≈ 26.7 µM) | MIC (Bacteroides fragilis; Table 12, 24-hour, B. fragilis 110): 64 µg/mL (≈ 53.4 µM) | MIC (Bacteroides fragilis; Table 12, 24-hour, B. fragilis 111): 32 µg/mL (≈ 26.7 µM) | MIC (Bacteroides fragilis; Table 12, 24-hour, B. fragilis 112): 32 µg/mL (≈ 26.7 µM) | MIC (Bacteroides fragilis; Table 12, 24-hour, B. fragilis 113): 32 µg/mL (≈ 26.7 µM) | MIC (Bacteroides fragilis; Table 12, 24-hour, B. fragilis 1451): 64 µg/mL (≈ 53.4 µM) | MIC (Bacteroides fragilis; Table 12, 24-hour, B. fragilis 1470): 64 µg/mL (≈ 53.4 µM) | MIC (Bacteroides fragilis; Table 12, 24-hour, B. fragilis 1877): 32 µg/mL (≈ 26.7 µM) | MIC (Bacteroides fragilis; Table 12, 24-hour, B. fragilis 9032): 32 µg/mL (≈ 26.7 µM) | MIC (Bacteroides fragilis; Table 14, Bacteroides fragilis 111): 64 µg/mL (≈ 53.4 µM) | MIC (Bacteroides fragilis; Table 14, Bacteroides fragilis 1877): 32 µg/mL (≈ 26.7 µM) | MIC (Bacteroides fragilis; Table 14, Bacteroides fragilis 1936B): 32 µg/mL (≈ 26.7 µM) | MIC (Bacteroides vulgatis [5]): 32 µg/mL (≈ 26.7 µM) | ED50 (S. pyogenes): 1.4 mg/kg | ED50 (S. pneumoniae): 1.4 mg/kg | ED50 (Staph. aureus): < 0.43 mg/kg | MIC (Peptococcus prevoti; Table 14, Peptococcus prevoti 1281): ≤ 0.25 µg/mL | MIC (Peptococcus prevoti; Table 15, Pc. prevoti 1281): 0.5 µg/mL (≈ 0.417 µM) | MIC (Peptococcus prevoti; Table 15, Pc. prevoti 1293): 0.25 µg/mL (≈ 0.209 µM) | MIC (Peptococcus prevoti; Table 15, Pc. prevoti 1407): 0.5 µg/mL (≈ 0.417 µM) | MIC (Clostridium septicum): 4 µg/mL (≈ 3.34 µM) | MIC ([6]; Table 14, Peptostreptococcus intermedius 1264): 0.5 µg/mL (≈ 0.417 µM) | MIC ([6]; Table 15, Ps. intermedius 1264): ≤ 0.03 µg/mL | MIC ([6]; Table 15, Ps. intermedius 1524): 0.25 µg/mL (≈ 0.209 µM) | MIC ([6]; Table 15, Ps. intermedius 1624): 0.5 µg/mL (≈ 0.417 µM) | MIC (Streptococcus pyogenes; Table 17): 0.25 µg/mL (≈ 0.209 µM) | MIC (Streptococcus pyogenes; Table 18): 0.125 µg/mL (≈ 0.104 µM) | MIC (Pc. constellatus): 0.5 µg/mL (≈ 0.417 µM) | MIC (Bacteroides corrodens [7]): 64 µg/mL (≈ 53.4 µM) | MIC (Hemophilus influenzae; Table 17, Haemophilus influenzae 251): 2 µg/mL (≈ 1.67 µM) | MIC (Hemophilus influenzae; Table 17, Haemophilus influenzae Brun): 8 µg/mL (≈ 6.67 µM) | MIC (Hemophilus influenzae; Table 18, Haemophilus influenzae 76): 4 µg/mL (≈ 3.34 µM) | MIC (Hemophilus influenzae; Table 18, Haemophilus influenzae 312): 4 µg/mL (≈ 3.34 µM) | MIC (Hemophilus influenzae; Table 18, Haemophilus influenzae 4842): 4 µg/mL (≈ 3.34 µM) | MIC (Hemophilus influenzae; Table 18, Haemophilus influenzae 16836): 4 µg/mL (≈ 3.34 µM) | MIC (Hemophilus influenzae; Table 18, Haemophilus influenzae Bond): 4 µg/mL (≈ 3.34 µM) | MIC (Hemophilus influenzae; Table 18, Haemophilus influenzae C.L.): 8 µg/mL (≈ 6.67 µM) | MIC (Hemophilus influenzae; Table 18, Haemophilus influenzae Mx366): 4 µg/mL (≈ 3.34 µM) | MIC (Hemophilus influenzae; Table 18, Haemophilus influenzae Mx371): 4 µg/mL (≈ 3.34 µM) | MIC (Clostridium difficile; C. difficile 78): 0.5 µg/mL (≈ 0.417 µM) | MIC (Clostridium difficile; C. difficile 107B): 0.5 µg/mL (≈ 0.417 µM) | MIC (Clostridium difficile; C. difficile 111F): 1.0 µg/mL (≈ 0.834 µM) | MIC (Clostridium difficile; C. difficile 1153): 1.0 µg/mL (≈ 0.834 µM) | MIC (Clostridium difficile; C. difficile 2634): 1.0 µg/mL (≈ 0.834 µM) | MIC (Clostridium difficile; C. difficile 3424-5B): 1.0 µg/mL (≈ 0.834 µM) | MIC (Clostridium difficile; C. difficile 3816): 1.0 µg/mL (≈ 0.834 µM) | MIC (Clostridium difficile; C. difficile 3950): 1.0 µg/mL (≈ 0.834 µM) | MIC (Clostridium difficile; C. difficile 6890): 1.0 µg/mL (≈ 0.834 µM) | MIC (Clostridium difficile; C. difficile 8484): 1.0 µg/mL (≈ 0.834 µM) | MIC (Clostridium difficile; C. difficile A-194): 1.0 µg/mL (≈ 0.834 µM) | MIC (Clostridium difficile; C. difficile A-195): 1.0 µg/mL (≈ 0.834 µM) | MIC (Clostridium difficile; C. difficile A-196): 1.0 µg/mL (≈ 0.834 µM) | MIC (Clostridium difficile; C. difficile A-279): 1.0 µg/mL (≈ 0.834 µM) | MIC (Clostridium difficile; C. difficile A-280): 0.5 µg/mL (≈ 0.417 µM) | MIC (Clostridium difficile; C. difficile A-281): 1.0 µg/mL (≈ 0.834 µM) | MIC (Clostridium difficile; C. difficile WAL-2112): 1.0 µg/mL (≈ 0.834 µM) | MIC (Clostridium difficile; C. difficile WAL-3657): 1.0 µg/mL (≈ 0.834 µM) | MIC (Clostridium difficile; C. difficile WAL-4268): 0.5 µg/mL (≈ 0.417 µM) | MIC (Salmonella typhi; Salmonella typhi 1335): > 128 µg/mL | MIC (Salmonella typhi; Salmonella typhi X514): > 128 µg/mL | pKa, first titratable group [8]: about 5.6 | pKa, second titratable group [8]: ~7.5 | MIC [9]: 8 µg/mL (≈ 6.67 µM)
